≈ marks a conversion by molar mass, not a printed value. Where two headings read alike, the source gives them in different places.
How the values were obtained:
Format in all cases: cell-based
[1] = tested on: Neutrophils purified from human peripheral blood; assay: Human Neutrophil Transwell Migration Assay; details: 37° C., 45 minutes, % of the maximum migration possible
Excerpt: Neutrophils were purified from human peripheral blood utilizing PolymorphPrep. Red blood cells were lysed with a lysis buffer and the cells were washed, counted and resuspended in assay buffer. Neutrophils (approximately 50,000 to 100,000 in number) were placed over 5-micon pore sized transwell plates in 24-well format with test compounds in the bottom chamber of each well. A negative control of media alone in the bottom chamber was set up in triplicate. A positive control where the neutrophils were added directly to the bottom well was set up in triplicate.
The plates were incubated at 37° C. for 45 minutes to allow for migration. After this time, migration was confirmed visually and then an aliquot (⅙^th of total cells) from each well was taken for ATP detection via luminescence with ATPlite (PerkinElmer) to quantify the number of migrated cells. The averaged reading for random migration detected in the negative control was subtracted from all readings to obtain the corrected migration number. These numbers were then divided by the averaged reading from the positive control to get the % Neutrophil Migration of the maximum migration possible.

[2] = tested on: A. fumigatus MX 5944; assay: MEC assay (Example 31); details: RPMI pH 7.0, 35° C., 24-48 hr
Experimental: (§1) The test organisms consisted of strains from the Micromyx collection. Reference isolates were originally received from the American Type Culture Collection (ATCC; Manassas, Va.). Organisms received at Micromyx were initially streaked for isolation on Sabouraud dextrose or potato dextrose agar. Colonies were picked by swab from the medium and resuspended in the appropriate broth containing cryoprotectant. The suspensions were aliquoted into cryogenic vials and maintained at −80° C. Prior to testing, Candida isolates were streaked from the frozen vials on Sabouraud dextrose agar. The yeast isolates were incubated at overnight at 35° C. before use. The fungal isolates were incubated at least 7 days on Sabouraud dextrose agar slants at 35° C. before harvesting.
(§2) Isolates were tested in RPMI medium (Catalog No. SH30011.04; Lot No. AWA92121B; HyClone Labs, Logan, Utah) which was prepared according to CLSI guidelines. The pH of the medium was adjusted to 7.0 with 1 N NaOH. The medium was sterile filtered using a 0.2 μm PES filter and stored at 4° C. until used.
(§3) The MIC assay method employed automated liquid handlers to conduct serial dilutions and liquid transfers. Automated liquid handlers included the Multidrop 384 (Labsystems, Helsinki, Finland), Biomek 2000 and Biomek FX (Beckman Coulter, Fullerton Calif.). The wells in columns 2-12 in standard 96-well microdilution plates (Costar 3795) were filled with 150 μl of the correct diluent (50% DMSO for investigational compounds, 100% DMSO for comparator compounds). These would become the mother plates' from which ‘daughter’ or test plates would be prepared. Stocks were diluted to 40× the desired top concentration in the test plates in the indicated solvent, and 300 μL of the 40× stock was dispensed into the appropriate well in Column 1 of the mother plates. The Biomek 2000 was used to make serial serial 2-fold dilutions through Column 11 in the “mother plate”. The wells of Column 12 contained no drug and served as the organism growth control wells.
(§4) The daughter plates were loaded with 185 μL per well of RPMI described above using the Multidrop 384. The daughter plates were prepared using the Biomek FX which transferred 5 μL of drug solution from each well of a mother plate to the corresponding well of the daughter plate in a single step.
(§5) A standardized inoculum of each organism was prepared. For Candida, colonies were picked from the streak plate and a suspension was prepared in RPMI medium equal to a 0.5 McFarland standard, then diluted 1:100 in RPMI and transferred to compartments of sterile reservoirs divided by length (Beckman Coulter). For the Aspergillus isolates, previously prepared and quantitated suspensions were used to make dilutions in RPMI to reach 20× the final concentration. These dilutions were also transferred to compartments of sterile reservoirs divided by length (Beckman Coulter). The final concentration of the Aspergillus isolates was approximately 0.2-2.5×10^4 CFU/mL.
(§6) The Biomek 2000 was used to inoculate the plates. Daughter plates were placed on the Biomek 2000 work surface reversed so that inoculation took place from low to high drug concentration. The Biomek 2000 delivered 10 μL of standardized inoculum into each well. Thus, the wells of the daughter plates ultimately contained 185 μL of RPMI, 5 μL of drug solution, and 10 μL of inoculum. The final concentration of DMSO in the test well was 2.5% for the evaluated comparators and 1.25% for the investigational agents.
(§7) Plates were stacked 3 high, covered with a lid on the top plate, placed into plastic bags, and incubated at 35° C. for approximately 24-48 hr prior to reading. Plates were read when inoculum was confluent in growth wells. Plates were viewed from the bottom using a plate viewer. […] MICs were read where visible growth of the organism was inhibited. MECs were read where the growth shifted to a small, rounded, compact hyphal form as compared to the hyphal growth seen in the growth control well.

[3] = tested on: A. fumigatus MYA-4609; assay: MEC assay (Example 31); details: RPMI pH 7.0, 35° C., 24-48 hr
Experimental: as §1, §2, §3, §4, §5, §6, §7

[4] = tested on: A. fumigatus ATCC 13073; assay: MEC assay (Example 31); details: RPMI pH 7.0, 35° C., 24-48 hr
Experimental: as §1, §2, §3, §4, §5, §6, §7

[5] = tested on: A. fumigatus MYA-3626; assay: MEC assay (Example 31); details: RPMI pH 7.0, 35° C., 24-48 hr
Experimental: as §1, §2, §3, §4, §5, §6, §7

[6] = tested on: A. flavus MX 5948; assay: MEC assay (Example 31); details: RPMI pH 7.0, 35° C., 24-48 hr
Experimental: as §1, §2, §3, §4, §5, §6, §7

[7] = tested on: C. albicans ATCC 90028; assay: microbe, parasite or virus in culture
Experimental: as §1, §2, §3, §4, §5, §6, §7

[8] = tested on: C. krusei ATCC 14243; assay: microbe, parasite or virus in culture
Experimental: as §1, §2, §3, §4, §5, §6, §7

[9] = tested on: C. glabrata ATCC 90030; assay: microbe, parasite or virus in culture
Experimental: as §1, §2, §3, §4, §5, §6, §7

[10] = tested on: C. parapsilosis ATCC 22019; assay: microbe, parasite or virus in culture
Experimental: as §1, §2, §3, §4, §5, §6, §7

MIC ([7]; ATCC 90028, pH 7) | MIC ([8]; ATCC 14243, pH 7) | MIC ([9]; ATCC 90030, pH 7) | MIC ([10]; ATCC 22019, pH 7) | SMILES | % Neutrophil Migration ([1]; conc 0.001 μg/mL) | % Neutrophil Migration ([1]; conc 0.01 μg/mL) | % Neutrophil Migration ([1]; conc 0.1 μg/mL) | % Neutrophil Migration ([1]; conc 1 μg/mL) | % Neutrophil Migration ([1]; conc 10 μg/mL) | MEC [2] | MEC [3] | MEC [4] | MEC [5] | MEC [6] | other results
2 µg/mL (≈ 1.26 µM) | 8 µg/mL (≈ 5.05 µM) | 4 µg/mL (≈ 2.53 µM) | 32 µg/mL (≈ 20.2 µM) | CC[C@H](C)C[C@H](C)CCCCCCCCC(=O)N[C@H]1C[C@@H](O)[C@@H](NCCNC(=O)CCNC(=O)[C@H](Cc2ccccc2)NC(=O)[C@H](CC(C)C)NC(=O)[C@H](CCSC)NC=O)NC(=O)[C@@H]2[C@@H](O)CCN2C(=O)[C@H]([C@H](O)CCN)NC(=O)[C@H]([C@H](O)[C@@H](O)c2ccc(O)cc2)NC(=O)[C@@H]2C[C@@H](O)CN2C(=O)[C@H]([C@@H](C)O)NC1=O [Compound 4] | 3.8% | 88.0% | 15.1% | −9.8% | −11.2% | 1 µg/mL | 1 µg/mL | 1 µg/mL | 2 µg/mL | 1 µg/mL | –
2 µg/mL (≈ 1.22 µM) | 16 µg/mL (≈ 9.75 µM) | 16 µg/mL (≈ 9.75 µM) | 16 µg/mL (≈ 9.75 µM) | CC[C@H](C)C[C@H](C)CCCCCCCCC(=O)N[C@H]1C[C@@H](O)[C@@H](NCCN)NC(=O)[C@@H]2[C@@H](O)CCN2C(=O)[C@H]([C@H](O)CCNC(=O)[C@H](CCCCN)NC(=O)[C@H](Cc2ccccc2)NC(=O)[C@H](CC(C)C)NC(=O)[C@H](CCSC)NC=O)NC(=O)[C@H]([C@H](O)[C@@H](O)c2ccc(O)cc2)NC(=O)[C@@H]2C[C@@H](O)CN2C(=O)[C@H]([C@@H](C)O)NC1=O [Compound 14] | 0.9% | 1.9% | 14.8% | 21.4% | −9.0% | 0.12 µg/mL | 0.12 µg/mL | 0.25 µg/mL | 0.25 µg/mL | 0.12 µg/mL | –

Continued, molecule first:

SMILES | MIC ([7]; ATCC 90028, pH 7) | MIC ([8]; ATCC 14243, pH 7) | MIC ([9]; ATCC 90030, pH 7) | MIC ([10]; ATCC 22019, pH 7) | % Neutrophil Migration ([1]; conc 0.001 μg/mL) | % Neutrophil Migration ([1]; conc 0.01 μg/mL) | % Neutrophil Migration ([1]; conc 0.1 μg/mL) | % Neutrophil Migration ([1]; conc 1 μg/mL) | % Neutrophil Migration ([1]; conc 10 μg/mL) | MEC [2] | MEC [3] | MEC [4] | MEC [5] | MEC [6] | other results
CC[C@H](C)C[C@H](C)CCCCCCCCC(=O)N[C@H]1C[C@@H](O)[C@@H](NCCNC(=O)C(Cc2ccccc2)NC(=O)C(CC(C)C)NC(=O)C(CCSC)NC(=O)Nc2ccc(Cl)cc2)NC(=O)[C@@H]2[C@@H](O)CCN2C(=O)[C@H]([C@H](O)CCN)NC(=O)[C@H]([C@H](O)[C@@H](O)c2ccc(O)cc2)NC(=O)[C@@H]2C[C@@H](O)CN2C(=O)[C@H]([C@@H](C)O)NC1=O (single isomer, unassigned) [Compound 13b] | – | – | – | – | 6.2% | 26.1% | 11.5% | −8.5% | −7.6% | 0.25 µg/mL | 0.12 µg/mL | 0.25 µg/mL | 0.25 µg/mL | 0.12 µg/mL | MIC ([7]; C. albicans ATCC 90028, RPMI pH 7.0, 35° C., 24-48 hr): 2 µg/mL (≈ 1.22 µM); MIC ([8]; C. krusei ATCC 14243, RPMI pH 7.0, 35° C., 24-48 hr): 16 µg/mL (≈ 9.77 µM); MIC ([9]; C. glabrata ATCC 90030, RPMI pH 7.0, 35° C., 24-48 hr): 8 µg/mL (≈ 4.88 µM); MIC ([10]; C. parapsilosis ATCC 22019, RPMI pH 7.0, 35° C., 24-48 hr): 32 µg/mL (≈ 19.5 µM)
CC[C@H](C)C[C@H](C)CCCCCCCCC(=O)N[C@H]1C[C@@H](O)[C@@H](NCCNC(=O)[C@H](Cc2ccccc2)NC(=O)[C@H](CC(C)C)NC(=O)[C@H](CCSC)NC=O)NC(=O)[C@@H]2[C@@H](O)CCN2C(=O)[C@H]([C@H](O)CCN)NC(=O)[C@H]([C@H](O)[C@@H](O)c2ccc(O)cc2)NC(=O)[C@@H]2C[C@@H](O)CN2C(=O)[C@H]([C@@H](C)O)NC1=O [Compound 2] | 2 µg/mL (≈ 1.32 µM) | 8 to 16 µg/mL | 4 µg/mL (≈ 2.64 µM) | 16 µg/mL (≈ 10.6 µM) | −5.3% | 28.5% | 97.5% | 30.6% | −11.0% | 0.12 to 1 µg/mL | 0.12 to 1 µg/mL | 0.12 to 2 µg/mL | 0.25-1^ μg/mL | 0.06 to 1 µg/mL | –
CC[C@H](C)C[C@H](C)CCCCCCCCC(=O)N[C@H]1C[C@@H](O)[C@@H](NCCN)NC(=O)[C@@H]2[C@@H](O)CCN2C(=O)[C@H]([C@H](O)CCNC(=O)CCNC(=O)[C@H](Cc2ccccc2)NC(=O)[C@H](CC(C)C)NC(=O)[C@H](CCSC)NC=O)NC(=O)[C@H]([C@H](O)[C@@H](O)c2ccc(O)cc2)NC(=O)[C@@H]2C[C@@H](O)CN2C(=O)[C@H]([C@@H](C)O)NC1=O [Compound 3] | 2 µg/mL (≈ 1.26 µM) | 16 µg/mL (≈ 10.1 µM) | 16 µg/mL (≈ 10.1 µM) | >32 µg/mL | 1.5% | 109.3% | 66.2% | −9.7% | −11.0% | 1 µg/mL | 1 µg/mL | 1 µg/mL | 1 µg/mL | 1 µg/mL | –
C[C@@H](c1ncncc1F)[C@](O)(Cn1cncn1)c1ccc(F)cc1F [voriconazole, reference compound] | – | – | – | – | – | – | – | – | – | 0.12 to 0.25 µg/mL | 0.25 to 0.5 µg/mL | 0.012-0.5^ μg/mL | 0.12 to 0.5 µg/mL | 0.25 to 2 µg/mL | MIC ([7]; Candida albicans, ATCC90028, C. albicans ATCC 90028, RPMI pH 7.0, 35° C., 24-48 hr, read-out: MIC): 0.06 to 0.5 µg/mL (≈ 0.172 to 1.43 µM); MIC ([8]; Pichia kudriavzevii, ATCC14243, C. krusei ATCC 14243, RPMI pH 7.0, 35° C., 24-48 hr, read-out: MIC): 0.25 to 1 µg/mL (≈ 0.716 to 2.86 µM); MIC ([9]; Nakaseomyces glabratus, ATCC90030, C. glabrata ATCC 90030, RPMI pH 7.0, 35° C., 24-48 hr, read-out: MIC): 0.12 to 0.25 µg/mL (≈ 0.344 to 0.716 µM); MIC ([10]; Lodderomyces parapsilosis, ATCC22019, C. parapsilosis ATCC 22019, RPMI pH 7.0, 35° C., 24-48 hr, read-out: MIC): 0.03 to 0.06 µg/mL (≈ 0.0859 to 0.172 µM)
